In patent publication US10738035B2, “Hepatitis B antiviral agents” (Enanta Pharmaceuticals, Inc., priority 2015, dated 2020):

What was measured:
[1] = Compound toxicity, ATPLite (CC50); conditions: human, HepAD38 cells
Protocol: (§1) Briefly, cells are passaged upon attaining confluency in DMEM/F12 media in the presence of 10% FBS, Penn/Strep, 250 μg/mL G418, and 1 μg/ml tetracycline. Novel compounds are screened by first washing cells three times with PBS to remove tetracycline, and plating in 96 well plates at 35,000 cells/well. Compounds dissolved in DMSO are then diluted 1:200 into wells containing cells. Five days after compound addition, material is harvested for analysis.
Compound toxicity is evaluated by seeding cells at 15,000 cells/well and treating with compound as described above.

hepatitis B virus (HBV) = assay: HepAD38 antiviral assay (viral product accumulation, EC50); conditions: HePAD38, 120 h, read-out: HepAD38 EC50
Protocol: as §1
On harvest day, virion DNA is obtained by lysing with Sidestep Lysis and Stabilization Buffer and then quantified via quantitative real time PCR. Commercially available ELISA kits are used to quantitate the viral proteins HBsAg (Alpco) or HbeAg (US Biological) by following the manufacturer's recommended protocol after diluting samples to match the linear range of their respective assays.

SMILES	CC50 at 3 days [1]	EC50 (hepatitis B virus (HBV))
CN(C(=O)Nc1cc(C(=O)Nc2cc(F)c(F)c(F)c2)n(C)n1)C1CCCCC1 [Example 28]	> 30 µM	< 1 µM
Cn1nc(NC(=O)N2CCC(O)C2)cc1C(=O)Nc1cc(F)c(F)c(F)c1 (stereo not shown) [Example 29]	< 10 µM	1 to 10 µM
CCCN(C)C(=O)Nc1cc(C(=O)Nc2cc(F)c(F)c(F)c2)n(C)n1 [Example 30]	> 30 µM	< 1 µM
CCCCNC(=O)Nc1cc(C(=O)Nc2cc(F)c(F)c(F)c2)n(C)n1 [Example 31]	> 30 µM	1 to 10 µM
Cn1nc(NC(=O)NCCO)cc1C(=O)Nc1cc(F)c(F)c(F)c1 [Example 32]	10 to 30 µM	1 to 10 µM
C=CCn1nc(NC(=O)N2CCC(O)CC2)cc1C(=O)Nc1cc(F)c(F)c(F)c1 [Example 33]	> 30 µM	1 to 10 µM
Cn1nc(NC(=O)N2CCC(O)CC2)cc1C(=O)Nc1ccc(F)cc1 [Example 34]	> 30 µM	1 to 10 µM
Cn1nc(NC(=O)N2CCC(O)CC2)cc1C(=O)Nc1ccc(O)c(F)c1 [Example 35]	> 30 µM	> 10 µM
Cn1nc(NC(=O)N2CCC(O)CC2)cc1C(=O)Nc1cc(F)c(Cl)c(F)c1 [Example 36]	> 30 µM	> 10 µM
Cn1nc(NC(=O)N2CCC(O)CC2)cc1C(=O)Nc1cccnc1 [Example 37]	> 30 µM	> 10 µM
Cn1nc(NC(=O)N2CC(O)C2)cc1C(=O)Nc1cc(F)c(F)c(F)c1 [Example 38]	10 to 30 µM	< 1 µM
CN(CCCO)C(=O)Nc1cc(C(=O)Nc2cc(F)c(F)c(F)c2)n(C)n1 [Example 39]	> 30 µM	1 to 10 µM
CCN(C)C(=O)Nc1cc(C(=O)Nc2cc(F)c(F)c(F)c2)n(C)n1 [Example 40]	< 10 µM	1 to 10 µM
CC(C)CN(C)C(=O)Nc1cc(C(=O)Nc2cc(F)c(F)c(F)c2)n(C)n1 [Example 41]	> 30 µM	< 1 µM
Cn1nc(NC(=O)NCCS(C)(=O)=O)cc1C(=O)Nc1cc(F)c(F)c(F)c1 [Example 42]	> 30 µM	1 to 10 µM
Cn1nc(NC(=O)N2CCC(O)CC2)cc1C(=O)Nc1cccc(F)c1 [Example 43]	> 30 µM	1 to 10 µM
Cn1nc(NC(=O)N2CCC(O)CC2)cc1C(=O)Nc1ccc(F)c(F)c1 [Example 44]	> 30 µM	1 to 10 µM
Cn1nc(NC(=O)N2CCC(O)CC2)cc1C(=O)Nc1cccc(F)c1F [Example 45]	> 30 µM	1 to 10 µM
Cn1nc(NC(=O)N2CCC(O)CC2)cc1C(=O)Nc1cc(F)cc(F)c1 [Example 46]	10 to 30 µM	> 10 µM
Cn1nc(NC(=O)N2CCC(O)CC2)cc1C(=O)Nc1ccc(F)cc1F [Example 47]	> 30 µM	> 10 µM
Cn1nc(NC(=O)N2CCC(O)CC2)cc1C(=O)Nc1ccc(F)c(Cl)c1 [Example 48]	< 10 µM	1 to 10 µM
Cn1nc(NC(=O)N2CCC(O)CC2)cc1C(=O)Nc1ccc(Cl)c(F)c1 [Example 49]	> 30 µM	1 to 10 µM
Cn1nc(NC(=O)N2CCC(O)CC2)cc1C(=O)Nc1ccc(F)c(O)c1 [Example 50]	> 30 µM	> 10 µM
Cn1nc(NC(=O)N2CCC(O)CC2)cc1C(=O)Nc1ccccc1 [Example 51]	> 30 µM	> 10 µM

SMILES	CC50 at 3 days [1]	EC50 (hepatitis B virus (HBV))
Cn1nc(NC(=O)N2CCC(O)CC2)cc1C(=O)Nc1ccc(F)c(C(F)(F)F)c1 [Example 52]	> 30 µM	1 to 10 µM
Cn1nc(NC(=O)N2CCC(O)CC2)cc1C(=O)Nc1ccc(F)c(C#N)c1 [Example 53]	> 30 µM	1 to 10 µM
Cc1cc(NC(=O)c2cc(NC(=O)N3CCC(O)CC3)nn2C)ccc1F [Example 54]	< 10 µM	< 1 µM
COc1cc(NC(=O)c2cc(NC(=O)N3CCC(O)CC3)nn2C)ccc1F [Example 55]	> 30 µM	> 10 µM
Cn1nc(NC(=O)N2CCC(O)CC2)cc1C(=O)Nc1ccncc1 [Example 56]	> 30 µM	> 10 µM
CC(C)N(C)C(=O)Nc1cc(C(=O)Nc2cc(F)c(F)c(F)c2)n(C)n1 [Example 57]	< 10 µM	1 to 10 µM
CN(C(=O)N1CCC(O)CC1)c1cc(C(=O)Nc2cc(F)c(F)c(F)c2)n(C)n1 [Example 58]	> 30 µM	> 10 µM
Cn1nc(NC(=O)N2CCC(O)CC2)cc1C(=O)Nc1ccc(F)cc1Cl [Example 59]	> 30 µM	> 10 µM
Cn1nc(NC(=O)N2CCC(O)CC2)cc1C(=O)Nc1cc(F)c(F)c(Cl)c1 [Example 60]	< 10 µM	1 to 10 µM
Cn1nc(NC(=O)N2CCC(O)CC2)cc1C(=O)Nc1ccccn1 [Example 61]	> 30 µM	> 10 µM
Cn1nc(NC(=O)N2CCC(O)CC2)cc1C(=O)Nc1ccc(O)cc1 [Example 62]	> 30 µM	> 10 µM
Cn1nc(NC(=O)N2CCC(O)CC2)cc1C(=O)Nc1cccc(O)c1 [Example 63]	> 30 µM	> 10 µM
COc1ccc(NC(=O)c2cc(NC(=O)N3CCC(O)CC3)nn2C)cc1 [Example 64]	> 30 µM	> 10 µM
COc1cccc(NC(=O)c2cc(NC(=O)N3CCC(O)CC3)nn2C)c1 [Example 65]	> 30 µM	> 10 µM
CCc1ccc(NC(=O)c2cc(NC(=O)N3CCC(O)CC3)nn2C)cc1 [Example 66]	> 30 µM	> 10 µM
CC(C)c1ccc(NC(=O)c2cc(NC(=O)N3CCC(O)CC3)nn2C)cc1 [Example 67]	> 30 µM	> 10 µM
CC(C)c1cccc(NC(=O)c2cc(NC(=O)N3CCC(O)CC3)nn2C)c1 [Example 68]	> 10 µM	> 10 µM
Cn1nc(NC(=O)N2CCC(O)CC2)cc1C(=O)Nc1ccc(C(C)(C)C)cc1 [Example 69]	> 30 µM	> 10 µM
Cn1nc(NC(=O)N2CCC(O)CC2)cc1C(=O)Nc1ccc(-c2ccccc2)cc1 [Example 70]	> 30 µM	> 10 µM
O=C(Nc1cc(F)c(F)c(F)c1)c1ccc(Cl)c(NS(=O)(=O)N2CCC(O)CC2)c1 [Example 71]	> 30 µM	1 to 10 µM
COC(=O)c1ccc(NC(=O)c2cc(NC(=O)N3CCC(O)CC3)nn2C)cc1 [Example 72]	> 30 µM	> 10 µM
COC(=O)c1cccc(NC(=O)c2cc(NC(=O)N3CCC(O)CC3)nn2C)c1 [Example 73]	> 30 µM	> 10 µM
Cn1nc(NC(=O)N2CCC(O)CC2)cc1C(=O)Nc1ccc(C(=O)O)cc1 [Example 74]	> 30 µM	> 10 µM
